Experimental data as given in the NIST ThermoML archive (doi:10.1021/je900596d).

Conditions: for mass density: Vibrating tube method

FC(F)=C(F)C(F)(F)F [hexafluoropropene]
Conditions | mass density [kg/m3] | vapor or sublimation pressure [kPa]
343.18 K, 7163.7 kPa, Liquid | 1166.5 | –
343.18 K, 7207.1 kPa, Liquid | 1167.25 | –
343.18 K, 7249.5 kPa, Liquid | 1168.08 | –
343.18 K, 7293.3 kPa, Liquid | 1168.78 | –
343.18 K, 7354.7 kPa, Liquid | 1169.81 | –
343.18 K, 7477.5 kPa, Liquid | 1171.63 | –
343.18 K, 7539.3 kPa, Liquid | 1172.69 | –
343.18 K, 7580 kPa, Liquid | 1173.37 | –
343.18 K, 7621.6 kPa, Liquid | 1174.18 | –
343.18 K, 7663.4 kPa, Liquid | 1174.54 | –
343.18 K, 7709.7 kPa, Liquid | 1175.39 | –
343.18 K, 7753.6 kPa, Liquid | 1176.17 | –
343.18 K, 7797.5 kPa, Liquid | 1176.76 | –
343.18 K, 7837.6 kPa, Liquid | 1177.31 | –
343.18 K, 7898.4 kPa, Liquid | 1178.24 | –
343.18 K, 7941.1 kPa, Liquid | 1178.97 | –
343.18 K, 7984.5 kPa, Liquid | 1179.58 | –
343.18 K, 8043.1 kPa, Liquid | 1180.22 | –
343.18 K, 8085.6 kPa, Liquid | 1180.85 | –
343.18 K, 8131.1 kPa, Liquid | 1181.65 | –
343.18 K, 8209.9 kPa, Liquid | 1183.02 | –
343.18 K, 8291.5 kPa, Liquid | 1184.04 | –
343.18 K, 8335.5 kPa, Liquid | 1184.74 | –
343.18 K, 8378 kPa, Liquid | 1185.42 | –
343.18 K, 8419.6 kPa, Liquid | 1185.91 | –
343.18 K, 8464.8 kPa, Liquid | 1186.51 | –
343.18 K, 8525.6 kPa, Liquid | 1187.33 | –
343.18 K, 8587 kPa, Liquid | 1188.25 | –
343.18 K, 8628.5 kPa, Liquid | 1188.86 | –
343.18 K, 8670.7 kPa, Liquid | 1189.47 | –
343.18 K, 8714.6 kPa, Liquid | 1189.91 | –
343.18 K, 8776.2 kPa, Liquid | 1190.93 | –
343.18 K, 8818.3 kPa, Liquid | 1191.58 | –
343.18 K, 8881.2 kPa, Liquid | 1192.4 | –
343.18 K, 8941.7 kPa, Liquid | 1193.53 | –
343.18 K, 9000.5 kPa, Liquid | 1194.02 | –
343.18 K, 9064 kPa, Liquid | 1194.66 | –
343.18 K, 9123.4 kPa, Liquid | 1195.43 | –
343.18 K, 9184.1 kPa, Liquid | 1196.23 | –
343.18 K, 9262 kPa, Liquid | 1197.29 | –
343.18 K, 9304.6 kPa, Liquid | 1197.74 | –
343.18 K, 9350.1 kPa, Liquid | 1198.56 | –
343.18 K, 9408.2 kPa, Liquid | 1199.15 | –
343.18 K, 9449.8 kPa, Liquid | 1199.74 | –
343.18 K, 9509.5 kPa, Liquid | 1200.56 | –
343.18 K, 9567.5 kPa, Liquid | 1201.28 | –
343.18 K, 9607.9 kPa, Liquid | 1202.1 | –
343.18 K, 9667.5 kPa, Liquid | 1202.79 | –
343.18 K, 9708 kPa, Liquid | 1203.31 | –
343.18 K, 9749.9 kPa, Liquid | 1203.76 | –
343.18 K, 9796.9 kPa, Liquid | 1204.53 | –
343.18 K, 9839 kPa, Liquid | 1205.06 | –
343.18 K, 9920.9 kPa, Liquid | 1205.9 | –
343.18 K, 9962.6 kPa, Liquid | 1206.45 | –
343.21 K, Liquid, Closed cell (Static) method | – | 2243.8
343.26 K, 3.2 kPa, Fluid (supercritical or subcritical phases) | 0.22 | –
343.26 K, 5.9 kPa, Fluid (supercritical or subcritical phases) | 0.35 | –
343.26 K, 8.6 kPa, Fluid (supercritical or subcritical phases) | 0.55 | –
343.26 K, 10.3 kPa, Fluid (supercritical or subcritical phases) | 0.63 | –
343.26 K, 12.1 kPa, Fluid (supercritical or subcritical phases) | 0.73 | –
343.26 K, 14.8 kPa, Fluid (supercritical or subcritical phases) | 0.81 | –
343.26 K, 16.4 kPa, Fluid (supercritical or subcritical phases) | 1 | –
343.26 K, 19.5 kPa, Fluid (supercritical or subcritical phases) | 1.07 | –
343.26 K, 22.4 kPa, Fluid (supercritical or subcritical phases) | 1.29 | –
343.26 K, 24.3 kPa, Fluid (supercritical or subcritical phases) | 1.34 | –
343.26 K, 25.9 kPa, Fluid (supercritical or subcritical phases) | 1.39 | –
343.26 K, 29 kPa, Fluid (supercritical or subcritical phases) | 1.68 | –
